Residue numbers refer to the chain shown, from its start. Where “and” joins values, the source holds several entries; their conditions need not be identical. Equal values may be shown once.
Columns and labels:
[1] = tested on: human alpha1 glycine receptor; details: human alpha1 glycine receptors in HEK293; cited from earlier work
rat alpha 1 GlyR = rat alpha 1 GlyR in HEK293; cited from earlier work
WT glycine receptor = details: on cell mode, 4 s drug application; cited from earlier work
[2] = tested on: α1β glycine receptors (wild-type); set-up: method as in earlier work; details: heterologously expressed α1β wild-type (WT) glycine receptors; cited from earlier work
[3] = molecular target: T1, human α1S267I-GlyR expressed in HEK 293 cells (Homo sapiens, UniProt P23415, S295I); experiment: Whole-cell patch-clamp, direct activation in the absence of glycine; format: cell-based; set-up: expressed in transfected cells; host or cells: HEK 293 (transient, electroporation; pcDNA1amp vector); details: S267I, 0.01-1000 μM
T1 sequence (P23415 29-457 S295I): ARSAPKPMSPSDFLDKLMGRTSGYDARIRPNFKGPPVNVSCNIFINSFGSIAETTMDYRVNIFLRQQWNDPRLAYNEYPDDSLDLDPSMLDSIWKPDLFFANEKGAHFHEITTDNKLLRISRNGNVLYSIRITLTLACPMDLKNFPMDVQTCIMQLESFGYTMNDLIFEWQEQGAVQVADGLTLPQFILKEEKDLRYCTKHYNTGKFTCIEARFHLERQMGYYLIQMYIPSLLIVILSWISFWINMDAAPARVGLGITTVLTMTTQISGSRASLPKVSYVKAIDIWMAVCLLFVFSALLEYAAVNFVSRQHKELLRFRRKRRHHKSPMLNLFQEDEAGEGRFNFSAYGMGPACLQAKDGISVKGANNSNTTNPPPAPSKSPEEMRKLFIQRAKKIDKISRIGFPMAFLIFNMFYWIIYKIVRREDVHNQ
Procedure: (§1) Drug-containing vials were vigorously vortexed for 30min.
(§2) A new cell was used for each protocol and at least four different experiments were performed for each condition. The concentration of the diluent EtOH corresponding to the highest drug concentration used was 17150 μM.
(§3) Currents were filtered at 2 kHz.

[4] = molecular target: T1, human α1S267I-GlyR expressed in HEK 293 cells; experiment: Whole-cell patch-clamp, positive allosteric modulation of glycine (EC20) induced currents; format: cell-based; set-up: expressed in transfected cells; host or cells: HEK 293 (transient, electroporation; pcDNA1amp vector); details: S267I
Procedure: as §1, §2, §3
(§4) Currents were normalized to their own maximum response.

[5] = molecular target: T2, human α1R271K-GlyR expressed in HEK 293 cells (Homo sapiens, UniProt P23415, R299K); experiment: as above; format: cell-based; set-up: expressed in transfected cells; host or cells: HEK 293 (transient, electroporation; pcDNA1amp vector); details: R271K
T2 sequence (P23415 29-457 R299K): T1 sequence (P23415 29-457 S295I) with I267S, R271K
Procedure: as §1, §2, §3, §4

[6] = molecular target: T3, human α1R271L-GlyR expressed in HEK 293 cells (Homo sapiens, UniProt P23415, R299L); experiment: as above; format: cell-based; set-up: expressed in transfected cells; host or cells: HEK 293 (transient, electroporation; pcDNA1amp vector); details: R271L
T3 sequence (P23415 29-457 R299L): T1 sequence (P23415 29-457 S295I) with I267S, R271L
Procedure: as §1, §2, §3, §4

| Compound | Hill slope nH [1] | Hill slope nH (rat alpha 1 GlyR) | rise time (WT glycine receptor) [ms] | potency relative to propofol in enhancing glycine induced currents [2] [fold] | direct activation [3] | positive allosteric modulation nH ± SEM ([4]; EC20 glycine 30 μM) | EC50 ([4]; co-applied with sub-saturating (EC20) glycine 30 μM, read-out: positive allosteric modulation EC50 ± SEM) | positive allosteric modulation, potentiation [% of peak current amplitude] ± SEM ([4]; maximal positive allosteric modulation, EC20 glycine 30 μM) [%] | positive allosteric modulation nH ± SEM ([5]; EC20 glycine 100 μM) | EC50 ([5]; co-applied with sub-saturating (EC20) glycine 100 μM, read-out: positive allosteric modulation EC50 ± SEM) [µM] | positive allosteric modulation, potentiation [% of peak current amplitude] ± SEM ([5]; maximal positive allosteric modulation, EC20 glycine 100 μM) [%] | positive allosteric modulation nH ± SEM ([6]; EC20 glycine 30 mM) | EC50 ([6]; co-applied with sub-saturating (EC20) glycine 30 mM, read-out: positive allosteric modulation EC50 ± SEM) [µM] | positive allosteric modulation, potentiation [% of peak current amplitude] ± SEM ([6]; maximal positive allosteric modulation, EC20 glycine 30 mM) [%] |
| --- | --- | --- | --- | --- | --- | --- | --- | --- | --- | --- | --- | --- | --- | --- |
| NCC(=O)O [glycine] | 2.4 | 3.3 | 0.4 | – | – | – | – | – | – | – | – | – | – | – |
| 4-chloro-2,6-dimethylphenol [4-chloropropofol] | – | – | – | ~1000 | completely insensitive | 0.7 ± 0.3 | 55 µM and 55.1 µM | 128 ± 14 | 0.3 ± 0.1 | 6 ± 2.3 | 231 ± 174 | 0.7 ± 0.3 | 0.1 ± 0.2 | 153 ± 46 |

Reference: paper PMC3517478 (BMC Neurology, 2012)
